# Reference: patent US9290467B2, “Cyclic amides” (Hoffmann-La Roche Inc., priority 2012, dated 2016)
# Target: Cathepsin L (Homo sapiens (Human), UniProt P07711)
# Experiment: Cathepsin enzyme inhibition assay (fluorogenic peptide substrate Z-Val-Val-Arg-AMC)
# Format: biochemical
# Settings: enzyme 1 nM, substrate 20 μM, pH 6.5
# Method: Enzyme activity is measured by observing the increase in fluorescence intensity caused by cleavage of a peptide substrate containing a fluorophore whose emission is quenched in the intact peptide.
# Assay buffer: 100 mM potassium phosphate pH 6.5, EDTA-Na 5 mM, Triton X-100 0.001%, DDT 5 mM.
# Enzymes (all at 1 nM): human and mouse Cathepsin S, Cat K, Cat B, Cat L
# Substrate (20 μM): Z-Val-Val-Arg-AMC, except for Cat K which uses Z-Leu-Arg-AMC (both from Bachem).
# AMC=7-Amino-4-Methyl-Coumarin.
# Excitation 360 nm, Emission 465 nm.
# Enzyme is added to the substance dilutions in 96-well microtitre plates and the reaction is started with substrate. […] IC50 are calculated by standard methods. The results are expressed in μM in the following table.
# Cathepsin L, sequence (P07711 114-333): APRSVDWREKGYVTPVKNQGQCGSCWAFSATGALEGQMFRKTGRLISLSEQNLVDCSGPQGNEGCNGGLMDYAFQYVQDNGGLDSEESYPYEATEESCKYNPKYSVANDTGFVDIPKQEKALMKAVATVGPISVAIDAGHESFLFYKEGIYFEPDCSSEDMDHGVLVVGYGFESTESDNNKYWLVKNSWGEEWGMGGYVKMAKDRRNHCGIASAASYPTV
row,SMILES,IC50 [nM]
1,"N#CC1(NC(=O)[C@@H]2Cc3ccc(c(Cl)c3)OC/C=C/CCN3CCCC3C(=O)N2)CC1 (mixture of isomers) [Example 12, (E)-(S)-18-Chloro-5-oxo-16-oxa-4,10-diaza-tricyclo[15.2.2.0*6,10*]henicosa-1(20),13,17(21),18-tetraene-3-carboxylic acid (1-cyano-cyclopropyl)-amide]",878
2,"N#CC1(NC(=O)[C@@H]2Cc3ccc(c(Cl)c3)OC/C=C/CCN3C[C@@H](F)CC3C(=O)N2)CC1 (mixture of isomers) [Example 13, (E)-(3S,8S)-18-Chloro-8-fluoro-5-oxo-16-oxa-4,10-diaza-tricyclo[15.2.2.0*6,10*]henicosa-1(20),13,17(21),18-tetraene-3-carboxylic acid (1-cyano-cyclopropyl)-amide]",948
3,"N#CC1(NC(=O)[C@@H]2Cc3ccc(c(Cl)c3)OC/C=C/CCN3CC(F)(F)CC3C(=O)N2)CC1 (mixture of isomers) [Example 14, (E)-(S)-18-Chloro-8,8-difluoro-5-oxo-16-oxa-4,10-diaza-tricyclo[15.2.2.0*6,10*]henicosa-1(20),13,17(21),18-tetraene-3-carboxylic acid (1-cyano-cyclopropyl)-amide]",6060
4,"CC1(C)CC2C(=O)N[C@H](C(=O)NC3(C#N)CC3)Cc3ccc(c(Cl)c3)OC/C=C/CCN2C1 (mixture of isomers) [Example 15, (E)-(S)-18-Chloro-8,8-dimethyl-5-oxo-16-oxa-4,10-diaza-tricyclo[15.2.2.0*6,10*]henicosa-1(20),13,17(21),18-tetraene-3-carboxylic acid (1-cyano-cyclopropyl)-amide]",168
5,"N#CC1(NC(=O)[C@@H]2Cc3ccc(cc3)OC/C=C/COc3cccc(c3)C(=O)N2)CC1 [Example 2, (E)-(S)-5-Oxo-11,16-dioxa-4-aza-tricyclo[15.2.2.1*6,10*]docosa-1(20),6,8,10(22),13,17(21),18-heptaene-3-carboxylic acid (1-cyano-cyclopropyl)-amide]",230
6,"N#CC1(NC(=O)[C@@H]2Cc3ccc(cc3)OC/C=C/CCc3ccccc3C(=O)N2)CC1 [Example 3, (E)-(S)-5-Oxo-17-oxa-4-aza-tricyclo[16.2.2.0%6,11&]docosa-1(21),6,8,10,14,18(22),19-heptaene-3-carboxylic acid (1-cyano-cyclopropyl)-amide]",77
7,"N#CC1(NC(=O)[C@@H]2Cc3ccc(c(Cl)c3)OC/C=C/COc3ccccc3C(=O)N2)CC1 [Example 4, (E)-(S)-19-Chloro-5-oxo-12,17-dioxa-4-aza-tricyclo[16.2.2.0*6,11*]docosa-1(21),6(11),7,9,14,18(22),19-heptaene-3-carboxylic acid (1-cyano-cyclopropyl)-amide]",13.8
8,"N#CC1(NC(=O)[C@@H]2Cc3ccc(c(Cl)c3)OC/C=C/CCc3ccccc3C(=O)N2)CC1 [Example 5, (E)-(S)-19-Chloro-5-oxo-17-oxa-4-aza-tricyclo[16.2.2.0*6,11*]docosa-1(21),6,8,10,14,18(22),19-heptaene-3-carboxylic acid (1-cyano-cyclopropyl)-amide]",9.6
9,"N#CC1(NC(=O)[C@@H]2Cc3ccc(c(Cl)c3)OC/C=C/COc3cccc(c3)C(=O)N2)CC1 [Example 6, (E)-(S)-18-Chloro-5-oxo-11,16-dioxa-4-aza-tricyclo[15.2.2.1*6,10*]docosa-1(20),6,8,10(22),13,17(21),18-heptaene-3-carboxylic acid (1-cyano-cyclopropyl)-amide]",32
10,"N#CC1(NC(=O)[C@@H]2Cc3ccc(c(Cl)c3)OCCCCOc3ccccc3C(=O)N2)CC1 [Example 7, (S)-19-Chloro-5-oxo-12,17-dioxa-4-aza-tricyclo[16.2.2.0*6,11*]docosa-1(21),6,8,10,18(22),19-hexaene-3-carboxylic acid (1-cyano-cyclopropyl)-amide]",96.2
11,"N#CC1(NC(=O)[C@@H]2Cc3ccc(c(Cl)c3)OC/C=C/COc3ccc(Br)cc3C(=O)N2)CC1 [Example 8, (E)-(S)-8-Bromo-19-chloro-5-oxo-12,17-dioxa-4-aza-tricyclo[16.2.2.0*6,11*]docosa-1(21),6,8,10,14,18(22),19-heptaene-3-carboxylic acid (1-cyano-cyclopropyl)-amide]",24.8
12,"N#CC1(NC(=O)[C@@H]2Cc3ccc(c(Cl)c3)OCCCCOc3ccc(Br)cc3C(=O)N2)CC1 [Example 9, (S)-8-Bromo-19-chloro-5-oxo-12,17-dioxa-4-aza-tricyclo[16.2.2.0%6,11&]docosa-1(21),6,8,10,18(22),19-hexaene-3-carboxylic acid (1-cyano-cyclopropyl)-amide]",10
13,"N#CC1(NC(=O)[C@@H]2Cc3ccc(c(Cl)c3)OC/C=C/COc3ccc(Cl)cc3C(=O)N2)CC1 [Example 10, (E)-(S)-8,19-Dichloro-5-oxo-12,17-dioxa-4-aza-tricyclo[16.2.2.0*6,11*]docosa-1(21),6,8,10,14,18(22),19-heptaene-3-carboxylic acid (1-cyano-cyclopropyl)-amide]",10.3
14,"N#CC1(NC(=O)[C@@H]2Cc3ccc(c(Cl)c3)OCCCCOc3ccc(Cl)cc3C(=O)N2)CC1 [Example 11, (S)-8,19-Dichloro-5-oxo-12,17-dioxa-4-aza-tricyclo[16.2.2.0*6,11*]docosa-1(21),6,8,10,18(22),19-hexaene-3-carboxylic acid (1-cyano-cyclopropyl)-amide]",11.6
15,"COc1ccc2c(c1)C(=O)N[C@H](C(=O)NC1(C#N)CC1)Cc1ccc(c(Cl)c1)OC/C=C/CO2 [Example 16, (E)-(S)-19-Chloro-8-methoxy-5-oxo-12,17-dioxa-4-aza-tricyclo[16.2.2.0*6,11*]docosa-1(21),6,8,10,14,18(22),19-heptaene-3-carboxylic acid (1-cyano-cyclopropyl)-amide]",11.4
16,"COc1ccc2c(c1)C(=O)N[C@H](C(=O)NC1(C#N)CC1)Cc1ccc(c(Cl)c1)OCCCCO2 [Example 17, (S)-19-Chloro-8-methoxy-5-oxo-12,17-dioxa-4-aza-tricyclo[16.2.2.0*6,11*]docosa-1(21),6,8,10,18(22),19-hexaene-3-carboxylic acid (1-cyano-cyclopropyl)-amide]",10.4
17,"N#CC1(NC(=O)[C@@H]2Cc3ccc(c(Cl)c3)OC/C=C/COc3cc(C(F)(F)F)ccc3C(=O)N2)CC1 [Example 20, (E)-(S)-19-Chloro-5-oxo-9-trifluoromethyl-12,17-dioxa-4-aza-tricyclo[16.2.2.0*6,11*]docosa-1(21),6,8,10,14,18(22),19-heptaene-3-carboxylic acid (1-cyano-cyclopropyl)-amide]",47.7
18,"N#CC1(NC(=O)[C@@H]2Cc3ccc(c(Cl)c3)OC/C=C/CNc3ccccc3C(=O)N2)CC1 [Example 21, (E)-(S)-19-Chloro-5-oxo-17-oxa-4,12-diaza-tricyclo[16.2.2.0*6,11*]docosa-1(21),6,8,10,14,18(22),19-heptaene-3-carboxylic acid (1-cyano-cyclopropyl)-amide]",54
19,"COc1ccc2c(c1)CCCCCOc1ccc(cc1Cl)C[C@@H](C(=O)NC1(C#N)CC1)NC2=O [Example 22, (S)-19-Chloro-9-methoxy-5-oxo-17-oxa-4-aza-tricyclo[16.2.2.0*6,11*]docosa-1(21),6,8,10,18(22),19-hexaene-3-carboxylic acid (1-cyano-cyclopropyl)-amide]",118
